Columns and labels:
Format in all cases: in vivo
[1] = test system: barnyardgrass (Echinochloa crus-galli); experiment: Test A postemergence application, visual injury rating 0-100; conditions: for Barnyardgrass plant response rating (0 to 100 scale): Postemergence
How it was run: (§1)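 Compounds formulated in a non-phytotoxic solvent with surfactant are sprayed onto soil of freshly planted loam-sand pots ahead of emergence, or onto emerged plants 2-10 cm tall. After a 10-day greenhouse period, each species is scored visually for injury against untreated controls.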

corn (Zea mays) [2] = experiment: as above; conditions: for Corn plant response rating (0 to 100 scale): Postemergence
How it was run: as §1

[3] = test system: blackgrass (Alopecurus myosuroides); experiment: as above; conditions: for Blackgrass plant response rating (0 to 100 scale): Postemergence
How it was run: as §1

[4] = test system: oat, wild (wild oat, Avena fatua); experiment: as above; conditions: for Oat, Wild plant response rating (0 to 100 scale): Postemergence
How it was run: as §1

[5] = test system: galium (catchweed bedstraw, Galium aparine); experiment: as above; conditions: for Galium plant response rating (0 to 100 scale): Postemergence
How it was run: as §1

[6] = test system: palmer (palmer amaranth, palmer pigweed, Amaranthus palmeri); experiment: as above
How it was run: as §1

[7] = test system: green foxtail (Setaria viridis); experiment: as above; conditions: for Foxtail, Green plant response rating (0 to 100 scale): Postemergence
How it was run: as §1

[8] = test system: horseweed (Erigeron canadensis); experiment: as above; conditions: for Horseweed plant response rating (0 to 100 scale): Postemergence
How it was run: as §1

kochia (Bassia scoparia) [9] = experiment: as above; conditions: for Kochia plant response rating (0 to 100 scale): Postemergence
How it was run: as §1

[10] = test system: wheat (Triticum aestivum); experiment: as above; conditions: for Wheat plant response rating (0 to 100 scale): Postemergence
How it was run: as §1

[11] = test system: ryegrass, Italian (italian ryegrass, Lolium multiflorum); experiment: as above; conditions: for Ryegrass, Italian plant response rating (0 to 100 scale): Postemergence
How it was run: as §1

soybean (Glycine max) [12] = experiment: as above; conditions: for Soybean plant response rating (0 to 100 scale): Postemergence
How it was run: as §1

[13] = test system: ragweed (common ragweed, Ambrosia artemisiifolia); experiment: as above; conditions: for Ragweed plant response rating (0 to 100 scale): Postemergence
How it was run: as §1

[14] = test system: barnyardgrass (Echinochloa crus-galli); experiment: Test A preemergence soil spray, visual injury rating 0-100; conditions: 10 days; for Barnyardgrass plant response rating: 0 to 100 scale
How it was run: as §1

corn (Zea mays) [15] = experiment: as above; conditions: 10 days; for Corn plant response rating: 0 to 100 scale
How it was run: as §1

[16] = test system: blackgrass (Alopecurus myosuroides); experiment: as above; conditions: 10 days; for Blackgrass plant response rating: 0 to 100 scale
How it was run: as §1

[17] = test system: oat, wild (wild oat, Avena fatua); experiment: as above; conditions: 10 days; for Oat, Wild plant response rating: 0 to 100 scale
How it was run: as §1

[18] = test system: palmer (palmer amaranth, palmer pigweed, Amaranthus palmeri); experiment: as above; conditions: 10 days
How it was run: as §1

[19] = test system: green foxtail (Setaria viridis); experiment: as above; conditions: 10 days; for Foxtail, Green plant response rating: 0 to 100 scale
How it was run: as §1

kochia (Bassia scoparia) [20] = experiment: as above; conditions: 10 days; for Kochia plant response rating: 0 to 100 scale
How it was run: as §1

[21] = test system: wheat (Triticum aestivum); experiment: as above; conditions: 10 days; for Wheat plant response rating: 0 to 100 scale
How it was run: as §1

[22] = test system: ryegrass, Italian (italian ryegrass, Lolium multiflorum); experiment: as above; conditions: 10 days; for Ryegrass, Italian plant response rating: 0 to 100 scale
How it was run: as §1

soybean (Glycine max) [23] = experiment: as above; conditions: 10 days; for Soybean plant response rating: 0 to 100 scale
How it was run: as §1

[24] = test system: ragweed (common ragweed, Ambrosia artemisiifolia); experiment: as above; conditions: 10 days; for Ragweed plant response rating: 0 to 100 scale
How it was run: as §1

[25] = test system: sedge, umbrella (small-flower umbrella sedge, Cyperus difformis); experiment: Test B flooded paddy test, visual plant response rating 0-100; conditions: 250 g ai/ha, Flood, applied to paddy water, evaluated after 13 days
How it was run: (§2)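 Plants were grown to the 2-leaf stage, then pots were flooded to 3 cm above the soil and test compounds were applied directly into the paddy water. Water depth was held there throughout; after 13 days in a greenhouse, injury was scored visually against untreated controls.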

[26] = test system: ducksalad (Heteranthera limosa); experiment: as above; conditions: 250 g ai/ha, Flood, applied to paddy water, evaluated after 13 days
How it was run: as §2

rice (Oryza sativa) = experiment: as above; conditions: 250 g ai/ha, Flood, applied to paddy water, evaluated after 13 days
How it was run: as §2

[27] = test system: barnyardgrass (Echinochloa crusgalli); experiment: as above; conditions: 250 g ai/ha, Flood, applied to paddy water, evaluated after 13 days
How it was run: as §2

[28] = 62 g ai/ha, postemergence, 10 days, 0 = no effect, 100 = complete control
[29] = 16 g ai/ha, greenhouse 10 days, 0 no effect, 100 complete control
[30] = 62 g ai/ha, 0 = no effect, 100 = complete control
[31] = 8 g ai/ha, 10 days, 0 is no effect, 100 is complete control
[32] = 31 g ai/ha, greenhouse 10 days, 0 no effect, 100 complete control

CC(C)COC(=O)C1=CCC(NC(=O)C2(C)CN(c3cc(F)cc(Cl)c3)C(=O)O2)C1 (centres unmarked) [Compound 143]
10: Plant response rating, Rice (0 to 100 scale, 0 is no effect and 100 is complete control) (rice (Oryza sativa))
45: Plant response rating, Sedge, Umbrella (0 to 100 scale, 0 is no effect and 100 is complete control) [25]
40: Plant response rating, Barnyardgrass (0 to 100 scale, 0 is no effect and 100 is complete control) [27]
60: Plant response rating, Ducksalad (0 to 100 scale, 0 is no effect and 100 is complete control) [26]
0: Barnyardgrass plant response rating (0-100) [1, 28] | Barnyardgrass plant response rating (0 to 100 scale) [1, 29] | Corn plant response rating (0-100) (corn (Zea mays) [2]; [28]) | Corn plant response rating (0 to 100 scale) (corn (Zea mays) [2]; [29]) | Blackgrass plant response rating (0-100) [3, 28] | Blackgrass plant response rating (0 to 100 scale) [3, 29] | Oat, Wild plant response rating (0-100) [4, 28] | Oat, Wild plant response rating (0 to 100 scale) [4, 29] | Galium plant response rating (0-100) [5, 28] | Galium plant response rating (0 to 100 scale) [5, 29] | Pigweed, Palmer plant response rating (0-100) [6, 28] | Pigweed, Palmer plant response rating (0 to 100 scale) ([6]; Postemergence, 16 g ai/ha, greenhouse 10 days, 0 no effect, 100 complete control) | Foxtail, Green plant response rating (0-100) [7, 28] | Foxtail, Green plant response rating (0 to 100 scale) [7, 29] | Horseweed plant response rating (0-100) [8, 28] | Horseweed plant response rating (0 to 100 scale) [8, 29] | Kochia plant response rating (0-100) (kochia (Bassia scoparia) [9]; [28]) | Kochia plant response rating (0 to 100 scale) (kochia (Bassia scoparia) [9]; [29]) | Wheat plant response rating (0-100) [10, 28] | Wheat plant response rating (0 to 100 scale) [10, 29] | Ryegrass, Italian plant response rating (0-100) [11, 28] | Ryegrass, Italian plant response rating (0 to 100 scale) [11, 29] | Soybean plant response rating (0-100) (soybean (Glycine max) [12]; [28]) | Soybean plant response rating (0 to 100 scale) (soybean (Glycine max) [12]; [29]) | Ragweed plant response rating (0-100) [13, 28] | Ragweed plant response rating (0 to 100 scale) [13, 29] | Barnyardgrass plant response rating ([14]; 16 g ai/ha) | Barnyardgrass plant response rating (0-100) [14, 30] | Corn plant response rating (corn (Zea mays) [15]; 16 g ai/ha) | Corn plant response rating (0-100) (corn (Zea mays) [15]; [30]) | Blackgrass plant response rating ([16]; 16 g ai/ha) | Blackgrass plant response rating (0-100) [16, 30] | Oat, Wild plant response rating ([17]; 16 g ai/ha) | Oat, Wild plant response rating (0-100) [17, 30] | Pigweed, Palmer plant response rating ([18]; 16 g ai/ha, 0 to 100 scale) | Pigweed, Palmer plant response rating (0-100) [18, 30] | Foxtail, Green plant response rating ([19]; 16 g ai/ha) | Foxtail, Green plant response rating (0-100) [19, 30] | Kochia plant response rating (kochia (Bassia scoparia) [20]; 16 g ai/ha) | Kochia plant response rating (0-100) (kochia (Bassia scoparia) [20]; [30]) | Wheat plant response rating ([21]; 16 g ai/ha) | Wheat plant response rating (0-100) [21, 30] | Ryegrass, Italian plant response rating ([22]; 16 g ai/ha) | Ryegrass, Italian plant response rating (0-100) [22, 30] | Soybean plant response rating (soybean (Glycine max) [23]; 16 g ai/ha) | Soybean plant response rating (0-100) (soybean (Glycine max) [23]; [30]) | Ragweed plant response rating ([24]; 16 g ai/ha) | Ragweed plant response rating (0-100) [24, 30]

CC1(C(=O)NC2C=CC(C(=O)NS(=O)(=O)c3ccccc3)C2)CN(c2cc(F)cc(F)c2)C(=O)O1 (centres unmarked) [Compound 88]
80: Kochia plant response rating (0 to 100 scale) (kochia (Bassia scoparia) [9]; [32]) | Amaranth, Palmer (Pigweed, Palmer) plant response rating ([18]; 31 g ai/ha, 0 to 100 scale) | Plant response rating, Sedge, Umbrella (0 to 100 scale, 0 is no effect and 100 is complete control) [25]
70: Galium plant response rating (0 to 100 scale) [5, 32] | Plant response rating, Ducksalad (0 to 100 scale, 0 is no effect and 100 is complete control) [26]
25: Plant response rating, Rice (0 to 100 scale, 0 is no effect and 100 is complete control) (rice (Oryza sativa))
0: Blackgrass plant response rating (0 to 100 scale) [3, 31] | Foxtail, Green plant response rating (0 to 100 scale) [7, 31] | Horseweed plant response rating (0 to 100 scale) [8, 31] | Ryegrass, Italian plant response rating (0 to 100 scale) [11, 31] | Soybean plant response rating (0 to 100 scale) (soybean (Glycine max) [12]; [31]) | Corn plant response rating (corn (Zea mays) [15]; 8 g ai/ha) | Corn plant response rating (corn (Zea mays) [15]; 31 g ai/ha) | Blackgrass plant response rating ([16]; 8 g ai/ha) | Oat, Wild plant response rating ([17]; 8 g ai/ha) | Oat, Wild plant response rating ([17]; 31 g ai/ha) | Kochia plant response rating (kochia (Bassia scoparia) [20]; 8 g ai/ha) | Wheat plant response rating ([21]; 8 g ai/ha) | Soybean plant response rating (soybean (Glycine max) [23]; 8 g ai/ha) | Soybean plant response rating (soybean (Glycine max) [23]; 31 g ai/ha) | Ragweed plant response rating ([24]; 8 g ai/ha)
15: Plant response rating, Barnyardgrass (0 to 100 scale, 0 is no effect and 100 is complete control) [27]
60: Ragweed plant response rating (0 to 100 scale) [13, 32] | Kochia plant response rating (kochia (Bassia scoparia) [20]; 31 g ai/ha)
100: Barnyardgrass plant response rating (0 to 100 scale) [1, 32]
40: Corn plant response rating (0 to 100 scale) (corn (Zea mays) [2]; [31]) | Pigweed, Palmer plant response rating (0 to 100 scale) ([6]; 8 g ai/ha, Postemergence, 10 days, 0 is no effect, 100 is complete control) | Wheat plant response rating (0 to 100 scale) [10, 32] | Barnyardgrass plant response rating ([14]; 31 g ai/ha) | Ragweed plant response rating ([24]; 31 g ai/ha)
50: Blackgrass plant response rating (0 to 100 scale) [3, 32] | Foxtail, Green plant response rating (0 to 100 scale) [7, 32] | Horseweed plant response rating (0 to 100 scale) [8, 32] | Ryegrass, Italian plant response rating (0 to 100 scale) [11, 32] | Soybean plant response rating (0 to 100 scale) (soybean (Glycine max) [12]; [32]) | Ragweed plant response rating (0 to 100 scale) [13, 31] | Pigweed, Palmer plant response rating ([18]; 8 g ai/ha, 0 to 100 scale) | Ryegrass, Italian plant response rating ([22]; 31 g ai/ha)
90: Corn plant response rating (0 to 100 scale) (corn (Zea mays) [2]; [32]) | Oat, Wild plant response rating (0 to 100 scale) [4, 32] | Amaranth, Palmer / Pigweed, Palmer plant response rating (0 to 100 scale) ([6]; Postemergence, 31 g ai/ha, greenhouse 10 days, 0 no effect, 100 complete control)
30: Galium plant response rating (0 to 100 scale) [5, 31] | Kochia plant response rating (0 to 100 scale) (kochia (Bassia scoparia) [9]; [31]) | Blackgrass plant response rating ([16]; 31 g ai/ha) | Foxtail, Green plant response rating ([19]; 31 g ai/ha)
20: Oat, Wild plant response rating (0 to 100 scale) [4, 31] | Wheat plant response rating (0 to 100 scale) [10, 31] | Foxtail, Green plant response rating ([19]; 8 g ai/ha)
10: Barnyardgrass plant response rating (0 to 100 scale) [1, 31] | Barnyardgrass plant response rating ([14]; 8 g ai/ha) | Wheat plant response rating ([21]; 31 g ai/ha) | Ryegrass, Italian plant response rating ([22]; 8 g ai/ha)

Reference: patent US20260285850A1, “SUBSTITUTED OXAZOLIDINONES AND IMIDAZOLINONES AS HERBICIDES” (FMC CORPORATION, priority 2023, published 2026)
